Series [1] can be described thus: Acute toxicity in ddY mice, intraperitoneal. Particulars: mouse, in vivo, ip, ddY mice (10 animals), formulated per Formulation Example 4. The method, then:
To ddY mice (10 animals), a drug containing one of Compound Nos. 1-7 and 9-13 of the present invention formulated in accordance with Formulation Example 4 was intraperitoneally administered, and the LD50 value was measured and found to be at least 100 mg/kg in each case, and at least 50 mg/kg in the case of Compound Nos. 8 and 14 of the present invention.
(§1) The Compound No. 1 of the present invention was preliminarily pulverized by a centrifugal pulverizer. On the other hand, 5 parts by weight of polyoxyethylene (60) hardened castor oil, 0.2 part by weight of silicone and 0.3 part by weight of a polyoxyethylene-polyoxypropylene block polymer were added to 79.5 parts by weight of a physiological saline to obtain an aqueous solution, to which 10 parts by weight of the above pulverized Compound No. 1 of the present invention was added. The mixture was pulverized in a wet system by a sand mill using glass beads (80% of particles having a particle size of not larger than 2 μm). Then, 5 parts by weight of xanthane gum (2% solution) was added thereto to obtain an aqueous suspension.

In series [2] the test system is p-388 leukemia cells. The series is described as follows: Antitumour activity, P-388 leukemia in BDF1 mice, intraperitoneal-intraperitoneal (Test Example 1). The settings on record: Mus musculus, P388, ip, 720 h, read-out: ILS (Increase Life Span); for ILS at 200 mg/kg: 200 mg/kg/day i.p.; for ILS at 400 mg/kg: 400 mg/kg/day i.p. The class given is in vivo. The method, then:
To BDF1 mice, p-388 leukemia cells were intraperitoneally inoculated in an amount of 1×10^6 cells/mouse. A test drug was intraperitoneally administered twice, i.e. one day and four days after the inoculation. […] The increase life span ILS (%)^* was obtained with the number of survival days of mice of the control group to which a physiological saline was administered, being evaluated as 100. The drugs were dispersions obtained by adding small amounts of surfactants (e.g. Tween-80) to the test compounds.
*ILS(%): Increase Life Span, calculated in accordance with the following
formula: ILS(%) = MST - 100, where MST is the ratio of median survival
time of test and control animals.

The test system of series [3] is p-388 leukemia cells. The experiment in a line: Antitumour activity, P-388 leukemia in BDF1 mice, intraperitoneal-oral (Test Example 2). Type of series: in vivo. Particulars: one and four days after i.p. inoculation, Formulation Example 4.
Source text: To BDF1 mice, p-388 leukemia cells were intraperitoneally inoculated in an amount of 1×10^6 cells/mouse. A test drug was orally administered twice i.e. one day and four days after the inoculation. […] The test drugs and comparative drugs were formulated in accordance with Formulation Example 4 given hereinafter.
*ILS(%), **Comparative Compound No. 1 and ***Comparative Compound No. 2
are the same as mentioned above in the notes of Table 1.
as §1

Setting [4] is: one and four days after i.p. inoculation, 30 days observation.
Where [5] appears, read: 100 mg/kg/day i.p., one and four days after i.p. inoculation, 30 days observation.

Like-named read-outs stand apart in the source and are kept apart here.

The LD50 is the dose at which mortality reaches 50%. High values mean a less toxic substance, low ones a more toxic substance.

Consider `O=C(NC(=O)c1ccccc1[N+](=O)[O-])Nc1ccc(Oc2ccc(Br)nn2)cc1` [Compound No. 7, N-(2-nitrobenzoyl)-N'-[4-(6-bromo-3-pyridazinyloxy)phenyl]urea], for which the LD50 in series [1] was at least 100 mg/kg. In the series with p-388 leukemia cells [2], the ILS at 100 mg/kg is over 120%.
For the compound `O=C(NC(=O)c1ccccc1[N+](=O)[O-])Nc1ccc(Oc2ccc(Br)nn2)c(Cl)c1` [Compound No. 1, N-(2-nitrobenzoyl)-N'-[4-(6-bromo-3-pyridazinyloxy)3-chlorophenyl]urea], the “ILS (Increase Life Span)” value in the series with p-388 leukemia cells [3] (200 mg/kg/day oral) was determined as 58%. This compound returned a median lethal dose (LD50) in series [1] of at least 100 mg/kg. Besides, the ILS at 200 mg/kg with p-388 leukemia cells [2] (setting [4]) was found to be 178%.
Turning to `Cc1cc(NC(=O)NC(=O)c2ccccc2[N+](=O)[O-])ccc1Oc1ccc(Cl)nn1` [Compound No. 13, N-(2-nitrobenzoyl)-N'-[4-(6-chloro-3-pyridazinyloxy)-3-methylphenyl]urea], the median lethal dose (LD50) in series [1] was at least 100 mg/kg.
In turn, `O=C(NC(=O)c1ccccc1[N+](=O)[O-])Nc1ccc(Oc2ccc(Cl)nn2)c(C(F)(F)F)c1` [Compound No. 8, N-(2-nitrobenzoyl)-N'-[4-(6-chloro-3-pyridazinyloxy)-3-trifluoromethylphenyl]urea] displayed an LD50 in series [1] of at least 50 mg/kg. The ILS at 100 mg/kg in the series with p-388 leukemia cells [2] (setting [5]) came out at 75%.
Turning to `O=C(NC(=O)c1ccccc1Cl)Nc1ccc(Oc2ccc(Cl)nn2)c(Cl)c1` [Comparative Compound No. 1, N--(2chlorobenzoyl)-N'--[3chloro-4-(3-chloro-6-pyridazinyloxy)phenyl]urea, reference compound], the “ILS (Increase Life Span)” value in the series on p-388 leukemia cells [3] (800 mg/kg/day oral) was 10%. For the same compound, in the series on p-388 leukemia cells [2] (setting [4]), the ILS at 200 mg/kg is 24% and the ILS at 400 mg/kg was 42%.
In series [1], `O=C(NC(=O)c1ccccc1[N+](=O)[O-])Nc1ccc(Oc2ccc(Cl)nn2)c(Cl)c1` [Compound No. 2, N-(2-nitrobenzoyl)-N'-[3-chloro-4-(6-chloro-3pyridazinyloxy)phenyl]urea] yielded an LD50 of at least 100 mg/kg. Further, the ILS at 200 mg/kg in the series on p-388 leukemia cells [2] (setting [4]) amounted to 71%.
Consider `O=C(NC(=O)c1ccccc1[N+](=O)[O-])Nc1ccc(Oc2ccc(I)nn2)c(Cl)c1` [Compound No. 3, N-(2-nitrobenzoyl)-N'-[3-chloro-4-(6-iodo-3-pyridazinyloxy)phenyl]urea], for which, in series [1], the LD50 was at least 100 mg/kg. For the same compound, the ILS at 100 mg/kg in the series with p-388 leukemia cells [2] (setting [5]) is 92%.
As to `O=C(NC(=O)c1ccc(Cl)cc1[N+](=O)[O-])Nc1ccc(Oc2ccc(Br)nn2)c(Cl)c1` [Compound No. 10, N-(4-chloro-2-nitrobenzoyl)-N'-[4-(6-bromo-3-pyridazinyloxy)-3-chlorophenyl]urea], the “ILS (Increase Life Span)” value in the series with p-388 leukemia cells [3] (400 mg/kg/day oral) is 32%. Moreover, the LD50 in series [1] was at least 100 mg/kg. Further, in the series on p-388 leukemia cells [2], the ILS at 100 mg/kg is 111%.
Turning to `O=C(NC(=O)c1ccccc1[N+](=O)[O-])Nc1ccc(Oc2ccc(Br)nn2)c(Br)c1` [Compound No. 6, N-(2-nitrobenzoyl)-N'-[3-bromo-4-(6-bromo-3-pyridazinyloxy)phenyl]urea], in series [1], the LD50 was at least 100 mg/kg.
Regarding `O=C(NC(=O)c1ccccc1[N+](=O)[O-])Nc1ccc(Oc2ccc(Br)nn2)c(F)c1` [Compound No. 9, N-(2-nitrobenzoyl)-N'-[4-(6-bromo-3-pyridazinyloxy)-3-fluorophenyl]urea], in the series on p-388 leukemia cells [3] (200 mg/kg/day oral), the “ILS (Increase Life Span)” value turned out to be 52%. In series [1], this compound gave a 50% lethal dose (LD50) of at least 100 mg/kg. Moreover, in the series on p-388 leukemia cells [2], the ILS at 100 mg/kg stood at 90%.
Regarding `O=C(NC(=O)c1c(Cl)cccc1Cl)Nc1ccc(Oc2ccc(Cl)nn2)c(Cl)c1` [Comparative Compound No. 2, N--(2,6dichlorobenzoyl)-N'--[3chloro-4-(3-chloro-6-pyridazinyloxy)phenyl]rea, reference compound], in the series with p-388 leukemia cells [3] (800 mg/kg/day oral), the “ILS (Increase Life Span)” value was determined as 0%. Moreover, in the series on p-388 leukemia cells [2] (setting [4]), the ILS at 200 mg/kg was -3% and the ILS at 400 mg/kg turned out to be 5%.
The compound `O=C(NC(=O)c1ccccc1[N+](=O)[O-])Nc1ccc(Oc2cccnn2)c(Cl)c1` [Compound No. 4, N-(2-nitrobenzoyl)-N'-[3-chloro-4-(3-pyridazinyloxy)phenyl]urea] gave an LD50 in series [1] of at least 100 mg/kg. Moreover, in the series with p-388 leukemia cells [2] (setting [4]), the ILS at 200 mg/kg was found to be 70%.
In turn, `O=C(NC(=O)c1ccccc1Cl)Nc1ccc(Oc2ccc(Cl)nn2)c(C(F)(F)F)c1` [Compound No. 12, N-(2-chlorobenzoyl)-N'-[4-(6-chloro-3-pyridazinyloxy)-3-trifluoromethylphenyl]urea] registered a 50% lethal dose (LD50) in series [1] of at least 100 mg/kg.
As to `O=C(NC(=O)c1ccc([N+](=O)[O-])cc1[N+](=O)[O-])Nc1ccc(Oc2ccc(Br)nn2)c(Cl)c1` [Compound No. 11, N-(2,4-dinitrobenzoyl)-N'-[4-(6-bromo-3-pyridazinyloxy)-3-chlorophenyl]urea], the 50% lethal dose (LD50) in series [1] is at least 100 mg/kg. The ILS at 100 mg/kg in the series with p-388 leukemia cells [2] stood at 102%.
On to `O=c1[nH]cc(F)c(=O)[nH]1` [5-Fluorouracil, reference compound], for which, in the series with p-388 leukemia cells [2], the ILS at 60 mg/kg is 85%.
Regarding `O=C(NC(=O)c1ccc([N+](=O)[O-])cc1[N+](=O)[O-])Nc1ccc(Oc2ccc(Cl)nn2)c(C(F)(F)F)c1` [Compound No. 14, N-(2,4-dinitrobenzoyl)-N'-[4-(6-chloro-3-pyridazinyloxy)-3-trifluoromethylphenyl]urea], in series [1], the LD50 was at least 50 mg/kg.
In series [1], `O=C(NC(=O)c1ccccc1[N+](=O)[O-])Nc1ccc(Oc2ccc(C(F)(F)F)nn2)c(Cl)c1` [Compound No. 5, N-(2-nitrobenzoyl)-N'-[3-chloro-4-(6-trifluoro-methyl-3-pyridazinyloxy)phenyl]urea] had an LD50 of at least 100 mg/kg. In addition, in the series on p-388 leukemia cells [2] (setting [4]), the ILS at 200 mg/kg came to 75%.

Source of the values: US4845093A, “N-benzoyl-N'-pyridazinyloxyphenyl urea compounds, and antitumorous compositions containing them, and process for their preparation” (Ishihara Sangyo Kaisha Ltd., priority 1984, dated 1989).
